Consider eight molecules from patent publication US20240376097A1, “BCL-2 Inhibitor” (BeiGene Ltd., priority 2020, published 2024).

Assay [1] concerns BCL-2 G101V knock-in cell line H96 (derive from RS4;11). The assay is described as follows: Bcl 2-G101V Knock-In RS4;11 Cell Proliferation Assay. The assay is classed as cell-based. The settings on record: Homo sapiens, RS4;11 Bcl-2 G101V knock-in clone H96, 48 hrs, CellTiter-GLO, read-out: Cellular proliferation assay (IC50, nM) RS4. In a few lines:
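CellTiter-Glo luminescence after 48 h, 37 °C compound treatment (10 concentrations, maximum 1 μM or 10 μM) gave mean IC50 values. Cells were 50,000 per well of H96, a BCL2-G101V knock-in single clone derived from RS4;11 by Cas9 editing.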
On the technique in general: Cellular ATP, detected with luciferase, serves as a proxy for viable cell number.

Assay [2] deals with recombinant human Bcl-2-G101V protein. The assay is described as follows: Bcl-2-G101V TR-FRET Assay. The assay is classed as binding. The settings on record: ratio of biochemical IC50 Bcl-2 G101V / Bcl-2 WT. In a few lines:
(§1)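 TR-FRET read at excitation 337 nm with emission at 490 nm and 520 nm. Inhibition of Bcl-2-G101V binding to its ligand across increasing compound concentrations was calculated from the 490/520 nm fluorescence ratio, and IC50 values came from four-parameter logistic fits.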
A general note: TR-FRET usually uses a lanthanide donor and a delayed reading to cut background.

Assay [3] deals with recombinant human Bcl-2-G101V protein (Homo sapiens (Human), UniProt P10415, G101V). The assay is described as follows: Bcl-2-G101V TR-FRET Assay. Type of assay: binding. The settings on record: Bcl-2 G101V mutant, TR-FRET; read-out: Biochemical assay (IC50, nM) Bcl-2 G101V. In a few lines:
as §1

Assay [4] addresses Recombinant human Bcl-2 protein (Homo sapiens (Human), UniProt P10415). Briefly: Bcl-2 TR-FRET Assay. Type of assay: binding. In a few lines: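 TR-FRET read (337 nm excitation, 520/490 nm emission) after 1 h with 0.5 nM FITC-labeled Bak peptide and Tb-cryptate anti-6His antibody. Bcl-2 at 0.05 nM had been pre-incubated 0.5 h with compound. IC50 fitted by four-parameter logistic equation.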

For assay [5], the system named is RS4;11 (BCL-2 dependent acute lymphoblastic leukemia cell line). Briefly: RS4;11 Cell Proliferation Assay. Type of assay: cell-based. The settings on record: Homo sapiens, RS4-11, RS4;11 cells, read-out: Cellular proliferation assay (IC50, nM) RS4. In a few lines:
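Viability measured via CellTiter-Glo luminescence after a 48 h, 37 °C exposure to compounds (10 points, highest 1 μM). Seeding was 50,000 RS4;11 cells per well in 10% FBS RPMI-1640; IC50 given as mean.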

The target of assay [6] is recombinant human Bcl-2 D103Y protein (Homo sapiens (Human), UniProt P10415, D103Y). The assay is described as follows: Bcl-2-D103Y Biochemical Assay (TR-FRET). Type of assay: binding. The settings on record: for IC50: TR-FRET, FITC labeled Bak peptide; for Ratio of Bcl-2 D103Y/Bcl-2 WT: ratio of IC50. In a few lines: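 Compounds titrated against the Bcl-2 D103Y–ligand interaction; inhibition derived from the TR-FRET emission ratio 490 nm/520 nm after 337 nm excitation. Four-parameter logistic fitting gave IC50.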

Setting [7] is: Bcl-2 wild type, TR-FRET, read-out: Biochemical assay (IC50, nM) Bcl-2 WT.
Setting [8] is: wild type Bcl-2, unit inferred, read-out: Bcl-2 WT.

Structures are written as SMILES. Like-named read-outs stand apart in the source and are kept apart here.

`CC(C)c1ccccc1C1CN(Cc2ccc3c(c2)OCO3)CCN1C1CC2(CCN(c3ccc(C(=O)NS(=O)(=O)c4ccc(NC[C@H]5CC[C@](C)(O)CC5)c([N+](=O)[O-])c4)c(Oc4cnc5[nH]ccc5c4)c3)CC2)C1` (stereo partly shown) [Example 122, 2-((1H-pyrrolo[2,3-b]pyridin-5-yl)oxy)-4-(2-(4-(benzo[d][1.3]dioxol-5-ylmethyl)-2-(2-isopropylphenyl)piperazin-1-yl)-7-azaspiro[3.5]nonan-7-yl)-N-((4-((((1r,4r)-4-hydroxy-4-methylcyclohexyl)methyl)amino)-3-nitrophenyl)sulfonyl)benzamide]: the IC50 worked out at 2.2 nM in assay [1]; 0.92 nM in assay [3]; 0.19 nM in assay [4] (setting [7]); 0.19 nM in assay [4] (setting [8]); 0.3 nM in assay [5]; 0.47 nM in assay [6]. Besides, in assay [2], the “Ratio of Bcl-2 G101V/WT” value stood at 5. For the same molecule, in assay [6], the “Ratio of Bcl-2 D103Y/Bcl-2 WT” value is 2.5.
As to `COc1ccc(CN2CCN(C3CC4(CCN(c5ccc(C(=O)NS(=O)(=O)c6ccc(NC[C@H]7CC[C@](C)(O)CC7)c([N+](=O)[O-])c6)c(Oc6cnc7[nH]cc(Cl)c7c6)c5)CC4)C3)[C@H](c3ccccc3C(C)C)C2)cc1` [Example 123, 2-((3-chloro-1H-pyrrolo[2,3-b]pyridin-5-yl)oxy)-N-((4-((((1r,4r)-4-hydroxy-4-methylcyclohexyl)methyl)amino)-3-nitrophenyl)sulfonyl)-4-(2-((R)-2-(2-isopropylphenyl)-4-(4-methoxybenzyl)piperazin-1-yl)-7-azaspiro[3.5]nonan-7-yl) benzamide], the IC50 in assay [1] was found to be 1.1 nM; in assay [3], 1.8 nM; in assay [4] (setting [7]), 0.54 nM; in assay [4] (setting [8]), 0.54 nM; in assay [5], 0.25 nM; in assay [6], 0.71 nM. In assay [2], the “Ratio of Bcl-2 G101V/WT” value came to 3.3. In addition, the “Ratio of Bcl-2 D103Y/Bcl-2 WT” value in assay [6] amounted to 1.3.
Turning to `CCOc1cc(CN2CCN(C3CC4(CCN(c5ccc(C(=O)NS(=O)(=O)c6ccc(NC[C@H]7CC[C@](C)(O)CC7)c([N+](=O)[O-])c6)c(Oc6cnc7[nH]ccc7c6)c5)CC4)C3)C(c3ccccc3C(C)C)C2)ccc1OC` (stereo partly shown) [Example 124, 2-((1H-pyrrolo[2,3-b]pyridin-5-yl)oxy)-4-(2-(4-(3-ethoxy-4-methoxybenzyl)-2-(2-isopropylphenyl)piperazin-1-yl)-7-azaspiro[3.5]nonan-7-yl)-N-((4-((((1r,4r)-4-hydroxy-4-methylcyclohexyl)methyl)amino)-3-nitrophenyl)sulfonyl)benzamide], the IC50 in assay [1] worked out at 1.2 nM; in assay [3], 0.51 nM; in assay [4] (setting [7]), 0.15 nM; in assay [4] (setting [8]) it was 0.15 nM; in assay [5] it was 0.24 nM; in assay [6] it was 0.21 nM. Besides, the “Ratio of Bcl-2 G101V/WT” value in assay [2] is on record as 3.4. The “Ratio of Bcl-2 D103Y/Bcl-2 WT” value in assay [6] was 1.4.
`COc1ccc(CN2CCN(C3CC4(CCN(c5ccc(C(=O)NS(=O)(=O)c6ccc(NC[C@H]7CC[C@](C)(O)CC7)c([N+](=O)[O-])c6)c(Oc6cc7c(F)c[nH]c7nc6C)c5)CC4)C3)[C@H](c3ccccc3C(C)C)C2)cc1` [Example 125, 2-((3-fluoro-6-methyl-1H-pyrrolo [2,3-b]pyridin-5-yl)oxy)-N-((4-((((1r,4r)-4-hydroxy-4-methylcyclohexyl)methyl)amino)-3-nitrophenyl)sulfonyl)-4-(2-((R)-2-(2-isopropylphenyl)-4-(4-methoxybenzyl)piperazin-1-yl)-7-azaspiro[3.5]nonan-7-yl) benzamide]: the IC50 was determined as 0.68 nM in assay [1]; 0.71 nM in assay [3]; 0.3 nM in assay [4] (setting [7]); 0.3 nM in assay [4] (setting [8]); 0.15 nM in assay [5]; 0.33 nM in assay [6]. Besides, the “Ratio of Bcl-2 G101V/WT” value in assay [2] is on record as 2.4. Moreover, the “Ratio of Bcl-2 D103Y/Bcl-2 WT” value in assay [6] came out at 1.1.
Turning to `CC(C)c1ccccc1C1CN(Cc2ccccn2)CCN1C1CC2(CCN(c3ccc(C(=O)NS(=O)(=O)c4ccc(NC[C@H]5CC[C@](C)(O)CC5)c([N+](=O)[O-])c4)c(Oc4cnc5[nH]ccc5c4)c3)CC2)C1` (stereo partly shown) [Example 131], the IC50 in assay [1] was 4.34 nM; in assay [3] it was 0.51 nM; in assay [4] (setting [7]), 0.05 nM; in assay [4] (setting [8]), 0.05 nM; in assay [5], 0.57 nM; in assay [6], 0.29 nM. Also, in assay [2], the “Ratio of Bcl-2 G101V/WT” value is reported as 10. Further, in assay [6], the “Ratio of Bcl-2 D103Y/Bcl-2 WT” value is 5.7.
For `COc1ccc(CN2CCN(C3CC4(CCN(c5ccc(C(=O)NS(=O)(=O)c6ccc(NC[C@H]7CC[C@](C)(O)CC7)c([N+](=O)[O-])c6)c(Oc6cnc7[nH]ccc7c6)c5)CC4)C3)C(c3ccccc3C(C)C)C2)cc1C#N` (stereo partly shown) [Example 132, 2-((1H-pyrrolo[2,3-b]pyridin-5-yl)oxy)-4-(2-(4-(3-cyano-4-methoxybenzyl)-2-(2-isopropylphenyl)piperazin-1-yl)-7-azaspiro[3.5]nonan-7-yl)-N-((4-((((1r,4r)-4-hydroxy-4-methylcyclohexyl)methyl)amino)-3-nitrophenyl)sulfonyl)benzamide], the IC50 in assay [1] worked out at 2.05 nM; in assay [3], 0.92 nM; in assay [4] (setting [7]), 0.26 nM; in assay [4] (setting [8]) it was 0.26 nM; in assay [5], 0.31 nM; in assay [6], 0.47 nM. For the same molecule, the “Ratio of Bcl-2 G101V/WT” value in assay [2] turned out to be 3.5. The “Ratio of Bcl-2 D103Y/Bcl-2 WT” value in assay [6] is recorded as 1.3.
In the case of `COc1ccc(CN2CCN(C3CC4(CCN(c5ccc(C(=O)NS(=O)(=O)c6ccc(NC[C@H]7CC[C@](C)(O)CC7)c([N+](=O)[O-])c6)c(Oc6cnc7[nH]ccc7c6)c5)CC4)C3)C(c3ccccc3C(C)C)C2)cc1F` (stereo partly shown) [Example 134, 2-((1H-pyrrolo[2,3-b]pyridin-5-yl)oxy)-4-(2-(4-(3-fluoro-4-methoxybenzyl)-2-(2-isopropylphenyl)piperazin-1-yl)-7-azaspiro[3.5]nonan-7-yl)-N-((4-((((1r,4r)-4-hydroxy-4-methylcyclohexyl)methyl)amino)-3-nitrophenyl)sulfonyl)benzamide], the IC50 in assay [1] came to 3.1 nM; in assay [3], 1.3 nM; in assay [4] (setting [7]) it was 0.35 nM; in assay [4] (setting [8]), 0.35 nM; in assay [5] it was 0.4 nM; in assay [6], 0.67 nM. Also, the “Ratio of Bcl-2 G101V/WT” value in assay [2] was 3.8. The “Ratio of Bcl-2 D103Y/Bcl-2 WT” value in assay [6] is 1.9.
With `COc1ccc(CN2CCN(C3CC4(CCN(c5ccc(C(=O)NS(=O)(=O)c6ccc(NC[C@H]7CC[C@](C)(O)CC7)c([N+](=O)[O-])c6)c(Oc6cnc7[nH]ccc7c6)c5)CC4)C3)C(c3ccccc3C(C)C)C2)cc1C` (stereo partly shown) [Example 144, 2-((1H-pyrrolo[2,3-b]pyridin-5-yl)oxy)-N-((4-((((1r,4r)-4-hydroxy-4-methylcyclohexyl)methyl)amino)-3-nitrophenyl)sulfonyl)-4-(2-(2-(2-isopropylphenyl)-4-(4-methoxy-3-methylbenzyl)piperazin-1-yl)-7-azaspiro[3.5]nonan-7-yl)benzamide], the IC50 in assay [1] amounted to 2.8 nM; in assay [3] it was 1.1 nM; in assay [4] (setting [7]), 0.26 nM; in assay [4] (setting [8]), 0.26 nM; in assay [5], 0.463 nM; in assay [6], 0.47 nM. Also, the “Ratio of Bcl-2 G101V/WT” value in assay [2] worked out at 4.1. Further, the “Ratio of Bcl-2 D103Y/Bcl-2 WT” value in assay [6] is 1.8.
